Data set [1] deals with patient with migrainous headaches. Put plainly: Migraine prophylaxis case. In kind it is in vivo, human. On the procedure: The patient suffered from migrainous headaches with an average of 4-5 attacks per month, lasting on average between 3 and 8 hours. For acute pain treatment during an attack, a dosage of 50 mg of sumatriptan was administered orally. For the purpose of migraine prophylaxis, the patient was treated with topiramate in a dosage of 200 mg per day. […] Under administration of terguride (2×0.25 mg per day), the number of pain attacks decreased considerably to only one pain attack within 6 weeks with low pain intensity; also, the well-being of the patient improved within 2 weeks after the start of the therapy.

Data set [2] relates to patient suffering from mastalgia and stomach pains due to premenstrual syndrome. The data set can be described thus: Application of terguride in the case of mastalgia/premenstrual syndrome (single patient). The class given is in vivo, human. How it is done:
A patient suffering from mastalgia and stomach pains due to premenstrual syndrome was treated with terguride. […] The therapy started in the middle of the cycle. Twice a day, a tablet containing 0.5 mg terguride was administered to the patient over a period of 3 months. The pain severity was observed by means of a visual analogue scale. During the therapy, the pains in the chest and stomach area decreased and the patient was able to renounce on the administration of additional pain medication.

In data set [3] the test system is tumor patient with bone pains from bone metastases. The data set can be described thus: Tumor associated pain case. In kind it is in vivo, human. The following applies: 0.5 mg bid. On the procedure:
A tumor patient suffering from a pancreatic carcinoma complained about bone pains resulting from the development of bone metastases. The patient was treated with ibandronate. Additionally, the treatment was realized with ibuprofen, acetaminophen and desipramine. […] After the start of the therapy with terguride (0.5 mg bid) the patient's pain conditions were reduced and the well-being improved continuously.

For data set [4], the system named is patient suffering from fibromyalgia. Put plainly: Application of terguride in the case of fibromyalgia (single patient). The class given is in vivo, human. On the procedure: A patient suffering from fibromyalgia was treated with terguride. The patient complained about chronic pain in the extremities as well as about stomach pains and continuous exhaustion and tiredness. The discomforts had persisted for several months. No pretreatment had been realized prior to the treatment with terguride. The patient was treated with a daily dose of 3 mg of terguride which was administered in the morning and in the evening in single doses of 1.5 mg. The treatment was realized gradually. […] The treatment was realized over a period of 25 weeks and the condition of the patient was examined weekly.

Data set [5] deals with patient suffering from migraine. Put plainly: Application of terguride for the prophylaxis of migraine (single patient, diary). The class given is in vivo, human. The following applies: daily dose 2 mg. On the procedure: A patient, suffering from migraine on average four times a month, was treated with terguride. The patient was treated with a daily dose of 2 mg terguride which was administered in the morning and in the evening in single doses of 1 mg. The treatment was realized gradually. […] The patient was treated over a period of 24 weeks. The frequency, duration and severity of the migraine attacks were recorded by means of a diary. Within 4 weeks following the start of the treatment, a reduction of 40% of the frequency of migraine attacks could be shown, as well as a reduction of the attack duration from cumulative 12 days before the therapy to 8 days under terguride. The consumption of pain medication under therapy with terguride was reduced by 46%. […] The patient reported an improvement of […] general condition.

Data set [6] deals with patient with diabetic neuropathy. The data set can be described thus: Diabetic neuropathy case (numerical rating scale). The class given is in vivo, human. How it is done: About 15 months ago, a diabetic neuropathy was clinically diagnosed in a patient who has been suffering from Type 2 Diabetes for 10 years. The patient was treated with 3×50 mg amitryptiline/day. At the time of the examination, the patient complained about pain conditions associated with burning sensations, shooting or stabbing pains and unpleasant formication, mainly in the feet and with increasing intensity during the night. On the numerical rating scale from 0=no pain to 10=maximum pain intensity, the patient reported mean pain values of 8-9 on average.
Under therapy with terguride (0.5 mg b.i.d.) the pain conditions and the general condition of the patient improved quickly (average pain value of 2-3 on the rating scale).

The test system of data set [7] is patient with postherpetic neuralgia. The data set can be described thus: Postherpetic neuralgia case. The following applies: for pains under prior treatment: amitriptyline 3x50 mg/d, subsequently gabapentin 1500 mg daily, considerable deterioration within 10 days. The class given is in vivo, human. An excerpt: A patient of normal weight complained about a severe burning sensation and pains in the dermal area of the chest.

In data set [8] the test system is patient with herniated disc, chronic pain. Put plainly: Herniated disc chronic pain case, co-therapy with oxycodone.
The test system of data set [9] is patient suffering from fibromyalgia. The data set can be described thus: Application of proterguride in the case of fibromyalgia (single patient). In kind it is in vivo, human. The settings on record: daily dose 0.5 mg. How it is done: A patient suffering from fibromyalgia was treated with proterguride.
The patient complained about stomach problems, stomach pains, pains in the chest as well as about swollen breasts and continuous exhaustion and tiredness. The discomforts had persisted for approx. one year. No pretreatment had been realized prior to the treatment with proterguride.
The patient was treated with a daily dose of 0.5 mg of proterguride which was administered in the morning and in the evening. The treatment was realized gradually.
The treatment was realized over a period of 33 weeks and the condition of the patient was examined weekly. After just 12 weeks, the condition had improved, particularly regarding the pains in the chest.

For `CC1(C)O[C@@H]2[C@@H](CO[C@@]3(COS(N)(=O)=O)OC(C)(C)O[C@@H]23)O1` [topiramate, reference compound], in data set [1] (topiramate 200 mg per day), the migraine activity result is given as “No reduction of the migraine activity”. In addition, the “adverse effects leading to discontinuation” value in data set [1] (topiramate 200 mg per day, after 3 months) is “nausea and weight loss”.

For `CCN(CC)C(=O)N[C@H]1C[C@@H]2c3cccc4[nH]cc(c34)C[C@H]2N(C)C1` [terguride], the “general condition and joy of life” value in data set [2] (0.5 mg twice a day, 3 months) is recorded as “considerably improved”. Moreover, the “pains in the chest and stomach area (visual analogue scale)” value in data set [2] (0.5 mg twice a day, 3 months) was “decreased”. Also, the side effects result in data set [2] (0.5 mg twice a day, 3 months) was “No side effects were observed”; in data set [3], “No side effects were observed”; in data set [5] (24 weeks) it was “No side effects”; in data set [1] (terguride 2x0.25 mg per day), “No side effects were observed”; in data set [6] (0.5 mg b.i.d.), “No side effects”; in data set [7] (0.5 mg t.i.d.) it was “No side effects were observed”. For the same molecule, the “symptoms during the following months under therapy” value in data set [2] (continued therapy) is “remained symptom-free”. In addition, the pain conditions entry in [3] was “reduced”. Moreover, the “condition, in particular pains in the extremities and stomach pains (visual analog scale)” value in [4] (daily dose 3 mg (2 x 1.5 mg), after 10 weeks) is “visibly improved”. Besides, the “chronic conditions of tiredness and exhaustion” value in [4] (daily dose 3 mg, after 17 weeks) is given as “nearly impossible to detect”. Moreover, in data set [5] (under terguride, versus 12 days before the therapy), the “attack duration (cumulative)” value was found to be 8 days. For the same molecule, in [5] (under therapy), the “reduction of consumption of pain medication” value amounted to 46%. The “reduction of the frequency of migraine attacks” value in data set [5] (within 4 weeks following start of treatment) was determined as 40%. Besides, in [1] (terguride 2x0.25 mg per day), the “time to improvement of well-being after start of therapy” value is reported as at most 2 weeks. Besides, in [1] (terguride 2x0.25 mg per day, before: 4-5 attacks per month, low pain intensity), the “number of pain attacks within 6 weeks” value is “one”. The “migraine presentation after discontinuation (treatment-free interval)” value in [1] (terguride discontinued) is given as “the migraine presentation returned”. Moreover, the “loss of efficacy under continuous treatment” value in [6] (0.5 mg b.i.d., continuous treatment) is “No signs of an loss of efficacy”. Further, in data set [6] (under terguride 0.5 mg b.i.d.), the “average pain value on numerical rating scale (0=no pain to 10=maximum pain intensity)” value is 2-3. Besides, the “pain on gradual dose reduction (treatment-free interval)” value in data set [7] (after 3 months, daily dose gradually reduced) was “the pain increased quickly”. Besides, the pain presentation result in data set [7] (terguride 0.5 mg t.i.d.) was “improved in a fast and continuous manner”. The “efficacy under chronic therapy” value in [8] (chronic therapy) is listed as “remained efficient”. Moreover, the pain result in data set [8] (co-therapy terguride 2x0.5 mg/day with oxycodone 2x20 mg/day) is given as “almost completely pain-free”.

Turning to `CCCN1C[C@@H](NC(=O)N(CC)CC)C[C@@H]2c3cccc4[nH]cc(c34)C[C@H]21` [proterguride], in data set [9] (after 12 weeks), the “condition, particularly pains in the chest” value is on record as “improved” and the swelling of breasts result is “reduction of the swelling”. Further, the “chronic tiredness and exhaustion and stomach pains” value in [9] (after 20 weeks) is on record as “largely disappeared”. For the same molecule, the “overall condition of the patient” value in data set [9] (after 30 weeks) is “in the same condition as before the onset of the disease”.

Regarding `NCC1(CC(=O)O)CCCCC1` [gabapentin, reference compound], in data set [7], the “pains under prior treatment” value is “only to a short-term improvement”.

As for `COc1ccc2c3c1O[C@H]1C(=O)CC[C@@]4(O)[C@@H](C2)N(C)CC[C@]314` [oxycodone, reference compound], the pain intensity entry in data set [8] (oxycodone alone, 2x10 mg increased to 2x40 mg per day) is “considerably reduced”. In data set [8] (oxycodone alone, longer treatment, required dose reduction to 2x20 mg/day), the constipation complaints result is “the more complaints occurred due to constipation”.

As to `CN(C)CCC=C1c2ccccc2CCc2ccccc21` [amitriptyline, reference compound], the “mean pain values on numerical rating scale (0=no pain to 10=maximum pain intensity)” value in data set [6] (at examination, patient treated with 3x50 mg/day, before terguride) is reported as 8-9. Further, in [7], the “pains under prior treatment” value was “only to a short-term improvement”.
